# Experimental data from patent US12365674B2, “Inhibitors of histone deacetylase useful for the treatment or prevention of HIV infection” (Merck Sharp & Dohme LLC, priority 2019, dated 2025).
# Assays:
# Format in all cases: biochemical
# human HDAC1 = molecular target: T1, human HDAC1 (Homo sapiens, UniProt Q13547); test: Human HDAC enzyme inhibitor Fluor-de-Lys assay, HDAC1; conditions: 0.3 nM enzyme, 20 μM substrate BML-KI104, 3 h pre-incubation, 60 min reaction; read-out: HDAC1_IC50
# T1 construct: Full length human HDAC1-FLAG was stably expressed in HEK-293F cells; host or cells: HEK-293F cells
# Source text: (§1) Recombinant human HDAC8 (catalog number BML-SE145-0100) and HDAC10 (catalog number BML-SE559-0050) enzymes, HDAC substrates BML-KI104 and BML-KI178, and HDAC developer solutions BML-KI105 and BML-KI176 were purchased from Enzo Life Sciences (Farmingdale, NY). Recombinant human HDAC5 and HDAC11 were purchased from BPS Bioscience (San Diego, CA)(catalog numbers 50045 and 50021). Substrate Boc-Lys(TFA)-AMC was obtained from Bachem (Bupendorf, Switzerland) (catalog number 1-1985). HDAC inhibitor suberoylanilide hydroxamic acid (SAHA) was obtained from Indofine (Hillsborough Township, NJ) and trichostatin A (TSA) was obtained from Sigma-Aldrich (St. Louis, MO). […] HEPES pH 8.0 was obtained from Boston BioProducts (Ashland, MA), Tween-20 from Fisher Scientific (Hampton, NH)(catalog number BP337), TCEP from Calbiochem and 7.5% bovine serum albumin (BSA) from Life Technologies (Carlsbad, CA) (catalog number 15260037). 384-well, black assay plates were obtained from Corning (Corning, NY) (catalog number 3575).
# (§2) Recombinant human HDAC1, HDAC2, and HDAC3/SMRT heterodimer were prepared by Merck Research Laboratories. […] The eluted protein was then passed over an anti-HDAC1 immunoaffinity column to remove any complexes containing HDAC1. […]
# (§3) The histone deacetylase activities of HDAC1, HDAC2, HDAC3, HDAC6, and HDAC8 were measured in modified Fluor-de-Lys assays in 384-well format. In this assay, HDAC enzymes are initially incubated with an ε-acetyl (or -trifluoroacetyl)-L-lysine-containing substrate with a C-terminal amide having aminomethylcoumarin as the amine component. HDACs cleave the ε-acetyl group, rendering the resulting product susceptible to AMC cleavage by trypsin. The released AMC is then detected by its fluorescence.
# (§4) The HDAC 1, 2 assays employed buffer A, which contained 20 mM HEPES, pH 8.0, 1 mM MgCl2, 137 mM NaCl, 2.7 mM KCl, 0.05% BSA. The HDAC3/SMRT assay employed buffer B, consisting of 20 mM HEPES, pH 8.0, 1 mM MgCl2, 50 mM NaCl, 2.7 mM KCl, 0.05% BSA, 0.005% Tween 20, and 10 μM IP4. The HDAC6 assay employed buffer C, consisting of 20 mM HEPES, pH 8.0, 1 mM MgCl2, 137 mM NaCl, 2.7 mM KCl, 0.5 mM TCEP (Calbiochem) and 0.05% BSA. The HDAC8 assay employed buffer D, consisting of 20 mM HEPES, pH 8.0, 1 mM MgCl2, 100 mM NaCl, 20 mM KCl, 0.1% n-octyl-β-D-glucoside (Anatrace, Maumee, OH) and 0.05% BSA. All steps were performed at room temperature (23° C.). The assay was performed by pre-incubating serial dilutions of test compounds with the target HDAC prior to initiation with substrate. Each compound was titrated in a 10-point dose response, using a 1:3 fold dilution scheme, with 0.15 ul of solution added by ECHO555 to the plate, followed by the addition of 20 μl of the appropriate HDAC isoform diluted in appropriate assay buffer. […] Final conditions used for each assay were: 1. HDAC 1, 0.3 nM total enzyme, 20 μM substrate BML-K1104; 2. HDAC 2, 1.5 nM total enzyme, 40 μM substrate BML-K1104; 3. HDAC 3/SMRT, 0.3 nM total enzyme, 20 μM substrate BML-K1104; 4. HDAC 6, 1.3 nM total enzyme, 2.5 μM substrate BML-K1104; 5. HDAC 8, 1.3 nM total enzyme, 200 μM substrate BML-K1178; the final high dose of test compound was 30 μM. […] The reactions were stopped and developed by addition of 30 ul of HDAC developer solution containing a saturating level of HDAC inhibitor as follows: 1.
# human HDAC2 = molecular target: T2, human HDAC2 (Homo sapiens, UniProt Q92769); test: Human HDAC enzyme inhibitor Fluor-de-Lys assay, HDAC2; conditions: 1.5 nM enzyme, 40 μM substrate BML-KI104, 3 h pre-incubation, 60 min reaction; read-out: HDAC2_IC50
# T2 construct: Full length human HDAC2-FLAG was expressed in baculovirus infected Sf9 cells; host or cells: baculovirus infected Sf9 cells
# Source text: as §1, §2, §3, §4
# [1] = molecular target: T3, human HDAC3/SMRT heterodimer (Homo sapiens, UniProt O15379); test: Human HDAC enzyme inhibitor Fluor-de-Lys assay, HDAC3/SMRT; conditions: HDAC3/SMRT 0.3 nM enzyme, 20 μM substrate BML-KI104, 10 μM IP4, 3 h pre-incubation, 60 min reaction; read-out: HDAC3_IC50
# T3 construct: Full length human HDAC3-FLAG was expressed in HEK-293F cells along with SMRT; host or cells: HEK-293F cells
# Source text: as §1, §2, §3, §4
# T2 sequence (Q92769 whole entry): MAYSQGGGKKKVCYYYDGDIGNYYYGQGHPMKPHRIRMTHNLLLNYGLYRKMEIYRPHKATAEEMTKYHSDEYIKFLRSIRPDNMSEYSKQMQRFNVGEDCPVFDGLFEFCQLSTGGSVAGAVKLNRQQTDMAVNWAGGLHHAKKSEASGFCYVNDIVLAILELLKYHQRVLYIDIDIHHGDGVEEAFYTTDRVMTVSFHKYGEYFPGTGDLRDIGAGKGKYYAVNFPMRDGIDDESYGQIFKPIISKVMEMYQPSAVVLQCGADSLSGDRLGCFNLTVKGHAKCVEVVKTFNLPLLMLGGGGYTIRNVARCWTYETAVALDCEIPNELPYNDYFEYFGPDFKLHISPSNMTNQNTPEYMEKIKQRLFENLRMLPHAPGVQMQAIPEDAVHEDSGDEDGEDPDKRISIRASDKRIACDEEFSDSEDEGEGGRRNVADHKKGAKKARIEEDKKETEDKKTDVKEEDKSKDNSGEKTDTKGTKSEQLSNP
# T1 sequence (Q13547 whole entry): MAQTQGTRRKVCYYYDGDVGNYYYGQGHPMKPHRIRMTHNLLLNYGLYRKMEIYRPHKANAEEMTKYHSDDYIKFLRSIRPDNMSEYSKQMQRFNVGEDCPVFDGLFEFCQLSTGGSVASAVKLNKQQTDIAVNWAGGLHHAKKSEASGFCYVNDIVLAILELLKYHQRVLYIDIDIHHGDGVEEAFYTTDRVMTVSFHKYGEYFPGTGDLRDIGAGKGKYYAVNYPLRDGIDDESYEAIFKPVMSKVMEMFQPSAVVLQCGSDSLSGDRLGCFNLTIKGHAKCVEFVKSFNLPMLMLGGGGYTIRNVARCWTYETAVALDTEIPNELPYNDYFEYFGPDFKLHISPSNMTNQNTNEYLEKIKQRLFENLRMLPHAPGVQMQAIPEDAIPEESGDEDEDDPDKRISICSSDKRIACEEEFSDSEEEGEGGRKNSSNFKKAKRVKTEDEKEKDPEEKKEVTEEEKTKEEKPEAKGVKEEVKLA
# T3 sequence (O15379 whole entry): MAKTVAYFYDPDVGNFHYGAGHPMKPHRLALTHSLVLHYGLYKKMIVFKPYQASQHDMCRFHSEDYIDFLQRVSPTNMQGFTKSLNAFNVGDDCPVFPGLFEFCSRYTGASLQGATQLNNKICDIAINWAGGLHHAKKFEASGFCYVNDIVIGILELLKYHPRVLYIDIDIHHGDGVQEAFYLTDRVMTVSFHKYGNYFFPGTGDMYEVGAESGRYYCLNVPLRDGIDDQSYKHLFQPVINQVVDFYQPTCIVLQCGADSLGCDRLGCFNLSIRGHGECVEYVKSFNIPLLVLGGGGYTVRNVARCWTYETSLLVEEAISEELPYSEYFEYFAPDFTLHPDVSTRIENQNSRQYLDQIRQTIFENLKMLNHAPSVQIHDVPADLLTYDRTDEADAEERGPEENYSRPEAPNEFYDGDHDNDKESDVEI
# T3 sequence (Q9Y618 1-899 partner limits assumed): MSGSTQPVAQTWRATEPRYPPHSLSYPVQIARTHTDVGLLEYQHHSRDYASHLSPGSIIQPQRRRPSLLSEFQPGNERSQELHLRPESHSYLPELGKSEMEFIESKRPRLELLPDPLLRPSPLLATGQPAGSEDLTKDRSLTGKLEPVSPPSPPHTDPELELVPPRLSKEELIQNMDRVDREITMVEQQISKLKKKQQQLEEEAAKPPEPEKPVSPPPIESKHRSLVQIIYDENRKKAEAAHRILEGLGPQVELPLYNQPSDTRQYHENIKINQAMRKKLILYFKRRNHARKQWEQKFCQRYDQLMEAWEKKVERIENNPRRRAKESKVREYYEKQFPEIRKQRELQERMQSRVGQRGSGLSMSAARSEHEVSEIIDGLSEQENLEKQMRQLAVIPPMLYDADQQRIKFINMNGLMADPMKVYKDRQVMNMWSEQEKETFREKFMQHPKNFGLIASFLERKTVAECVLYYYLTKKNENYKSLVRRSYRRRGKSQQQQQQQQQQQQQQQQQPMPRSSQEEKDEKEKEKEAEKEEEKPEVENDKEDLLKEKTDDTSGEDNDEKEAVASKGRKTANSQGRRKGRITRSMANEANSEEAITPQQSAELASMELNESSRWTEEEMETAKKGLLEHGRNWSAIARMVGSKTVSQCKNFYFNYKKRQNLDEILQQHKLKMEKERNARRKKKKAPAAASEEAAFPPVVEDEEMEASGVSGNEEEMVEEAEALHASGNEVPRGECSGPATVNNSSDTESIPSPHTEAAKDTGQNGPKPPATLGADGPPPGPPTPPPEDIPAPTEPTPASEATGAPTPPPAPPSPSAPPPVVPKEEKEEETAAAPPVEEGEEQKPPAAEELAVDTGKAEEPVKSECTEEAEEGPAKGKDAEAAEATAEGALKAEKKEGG
Structure (SMILES),IC50 (human HDAC1) [nM],IC50 (human HDAC2) [nM],IC50 [1] [nM]
"CN(C)CC(=O)N[C@@H](COCCCC(=O)c1ccon1)c1[nH]c(-c2ccc(F)cc2)nc1Cl [Compound 17, N-[(1R)-1-[4-chloro-2-(4-fluorophenyl)-1H-imidazol-5-yl]-2-(4-isoxazol-3-yl-4-oxobutoxy)ethyl]-N~2~,N~2~- dimethylglycinamide]",18.6,106,17
"COc1nc2ccccc2cc1-c1cnc([C@H](COCCCC(=O)c2ccon2)NC(=O)CN(C)C)[nH]1 [Compound 14, N-{(1R)-2-(4-isoxazol-3-yl-4-oxobutoxy)-1-[5-(2-methoxyquinolin-3-yl)-1H-imidazol-2-yl]ethyl}-N~2~,N~2~- dimethylglycinamide]",1.5,3.2,2.2
"CNC(=O)C(=O)CCCOC[C@H](NC(=O)C12CCN(CC1)CC2)c1ncc(-c2cc3ccccc3nc2OC)[nH]1 [Compound 9, N-[(1R)-1-[5-(2-methoxyquinolin-3-yl)-1H-imidazol-2-yl]-2-{[5-(methylamino)-4,5-dioxopentyl]oxy}ethyl]-1-azabicyclo[2.2.2]octane-4-carboxamide]",1.5,1.5,1.5
"CN1CCC2(CC1)C[C@@H]2C(=O)N[C@@H](COCCCC(=O)c1ccon1)c1[nH]c(-c2ccc(F)cc2)nc1Cl [Compound 18, (1S)-N-[(1R)-1-[4-chloro-2-(4-fluorophenyl)-1H-imidazol-5-yl]-2-(4-isoxazol-3-yl-4-oxobutoxy)ethyl]-6-methyl-6-azaspiro[2.5]octane-1-carboxamide]",1.4,8.1,1.3
"CN1CC(C(=O)N[C@@H](COCCCC(=O)c2ccon2)c2[nH]c(-c3ccc(F)cc3)nc2Cl)C1 [Compound 16, N-[(1R)-1-[4-chloro-2-(4-fluorophenyl)-1H-imidazol-5-yl]-2-(4-isoxazol-3-yl-4-oxobutoxy)ethyl]-1-methylazetidine-3-carboxamide]",11.8,56.7,9.2
"COc1nc2ccccc2cc1-c1cnc([C@H](COCCCC(=O)c2ncco2)NC(=O)C23CCN(CC2)CC3)[nH]1 [Compound 12, N-{(1R)-1-[5-(2-methoxyquinolin-3-yl)-1H-imidazol-2-yl]-2-[4-(1,3-oxazol-2-yl)-4-oxobutoxy]ethyl}-1-azabicyclo[2.2.2]octane-4-carboxamide]",4.7,29.7,7.7
"COc1nc2ccccc2cc1-c1cnc([C@H](COCCCC(=O)c2ncco2)NC(=O)c2cncs2)[nH]1 [Compound 10, N-{(1R)-1-[5-(2-methoxyquinolin-3-yl)-1H-imidazol-2-yl]-2-[4-(1,3-oxazol-2-yl)-4-oxobutoxy]ethyl}-1,3-thiazole-5-carboxamide]",6.6,25.9,3.6
"COc1nc2ccccc2cc1-c1cnc([C@@H](N)COCCCC(=O)c2ncco2)[nH]1 [Compound 1, (R)-4-(2-amino-2-(5-(2-methoxyquinolin-3-yl)-1H-imidazol-2-yl)ethoxy)-1-(oxazol-2-yl)butan-1-one]",288,1000,185
"CCC(=O)CCCOC[C@H](NC(=O)C12CCN(CC1)CC2)c1ncc(-c2cc3ccccc3nc2OC)[nH]1 [Compound 6, N-{(1R)-1-[5-(2-methoxyquinolin-3-yl)-1H-imidazol-2-yl]-2-[(4-oxohexyl)oxy]ethyl}-1-azabicyclo[2.2.2]octane-4-carboxamide]",–,925,87.3
"COc1nc2ccccc2cc1-c1cnc([C@H](COCCCC(=O)c2ncco2)NC(=O)[C@H]2CC23CCN(C)CC3)[nH]1 [Compound 11, (1S)-N-{(1R)-1-[5-(2-methoxyquinolin-3-yl)-1H-imidazol-2-yl]-2-[4-(1,3-oxazol-2-yl)-4-oxobutoxy]ethyl}-6-methyl-6-azaspiro[2.5]octane-1-carboxamide]",2.1,9.7,5
"COc1nc2ccccc2cc1-c1cnc([C@H](COCCCC(=O)c2ncco2)NC(=O)CN(C)C)[nH]1 [Compound 13, N-{(1R)-1-[5-(2-methoxyquinolin-3-yl)-1H-imidazol-2-yl]-2-[4-(1,3-oxazol-2-yl)-4-oxobutoxy]ethyl}-N~2~,N~2~- dimethylglycinamide]",2.7,14.4,3.8
"CNC(=O)C(=O)CCCOC[C@H](NC(=O)c1cncs1)c1ncc(-c2cc3ccccc3nc2OC)[nH]1 [Compound 8, N-[(1R)-1-[5-(2-methoxyquinolin-3-yl)-1H-imidazol-2-yl]-2-{[5-(methylamino)-4,5-dioxopentyl]oxy}ethyl]-1,3-thiazole-5-carboxamide]",1.5,2.5,1.5
"Cc1ccc2cc(-c3cnc([C@H](CSCCCC(=O)c4ncco4)NC(=O)[C@H]4CC45CCN(C)CC5)[nH]3)ccc2n1 [Compound 21, (1S)-6-methyl-N-[(1R)-1-[5-(2-methylquinolin-6-yl)-1H-imidazol-2-yl]-2-{[4-(1,3-oxazol-2-yl)-4-oxobutyl]sulfanyl}ethyl]-6-azaspiro[2.5]octane-1-carboxamide]",1.5,2.9,1.5
"COc1cc2nc(C)ccc2cc1-c1cnc([C@H](COCCCC(=O)c2cc(C)on2)NC(=O)[C@H]2CC23CCN(C)CC3)[nH]1 [Compound 20, (1S)-N-{(1R)-1-[5-(7-methoxy-2-methylquinolin-6-yl)-1H-imidazol-2-yl]-2-[4-(5-methylisoxazol-3-yl)-4-oxobutoxy]ethyl}-6-methyl-6-azaspiro[2.5]octane-1-carboxamide]",3.7,3.8,0.8
"N[C@@H](COCCCC(=O)c1ccon1)c1ncc(-c2ccccc2F)[nH]1 [Compound 2, (R)-4-(2-amino-2-(5-(2-fluorophenyl)-1H-imidazol-2-yl)ethoxy)-1-(isoxazol-3-yl)butan-1-one]",602,≥ 900,272
"COc1cc2nc(C)ccc2cc1-c1cnc([C@H](COCCCC(=O)c2cc(C)on2)NC(=O)C2CN(C)C2)[nH]1 [Compound 19, N-{(1R)-1-[5-(7-methoxy-2-methylquinolin-6-yl)-1H-imidazol-2-yl]-2-[4-(5-methylisoxazol-3-yl)-4-oxobutoxy]ethyl}-1-methylazetidine-3-carboxamide]",6.9,8,1.3
"CCC(=O)CCCOC[C@H](NC(=O)c1cncs1)c1ncc(-c2cc3ccccc3nc2OC)[nH]1 [Compound 5, N-{(1R)-1-[5-(2-methoxyquinolin-3-yl)-1H-imidazol-2-yl]-2-[(4-oxohexyl)oxy]ethyl}-1,3-thiazole-5-carboxamide]",–,1160,–
